Test results from patent publication US5840698A, “Inhibitors of collagenase-1 and stormelysin-I metalloproteases, pharmaceutical compositions comprising same and methods of their use” (Affymax Technologies N.V., priority 1995, dated 1998).

Target: T1, carboxyl terminal truncated form of human stromelysin-I (Homo sapiens, UniProt P08254)
T1 construct: a carboxyl terminal truncated form of human stromelysin-I
Assay: in vitro inhibition of truncated human stromelysin-I, fluorogenic Mca-peptide assay
Format: biochemical
Conditions: mercaptoalcohol compared with corresponding mercaptoketone
Protocol: For example, assays of in vitro inhibition activity against a carboxyl terminal truncated form of human stromelysin-I were conducted as follows. The buffer was prepared from 50 mM of N-[2-hydroxyethyl]piperazine-N'-[2-ethanesulfonic acid] (HEPES) (pH 7.0) containing 5 mM calcium, 0.02% of 23 lauryl ether (Brij) and 0.5 mM cysteine and was degassed by vacuum for more than 30 minutes. The methanol (MeOH), which is used for dilution of the inhibitor to the desired concentration, was degassed by bubbling argon for more than 30 minutes. For dilution, a sufficient amount of MeOH was then added to the compounds of the present invention to obtain a 10 mmol solution. For the assay, 20 μL of the MeOH/inhibitor solution was added to 460 μL of buffer, to which 20 μL of 100 nM of stromelysin was then added. The resulting solution was left for three minutes, after which time 5 μL of 100 μM of (7-methoxycoumarin-4-yl)acetyl-Pro-Leu-Gly-Leu-[3-(2',4'-dinitrophenyl)-L- 2,3-diaminopropionyl]-Ala-Arg-NH2 (Mca-peptide)(in dimethyl sulfoxide (DMSO)) was added. The fluorescence intensity increase was measured using a fluoremeter, with excitation wavelength centered around 328 nm (slit of 5 nm) and emission wavelength centered around 393 nm (slit of […]). The slope at each inhibitor concentration was then measured. The slope versus inhibition concentration was next fit into the IC50 equation of […]

T1 sequence (P08254 100-272 limits assumed): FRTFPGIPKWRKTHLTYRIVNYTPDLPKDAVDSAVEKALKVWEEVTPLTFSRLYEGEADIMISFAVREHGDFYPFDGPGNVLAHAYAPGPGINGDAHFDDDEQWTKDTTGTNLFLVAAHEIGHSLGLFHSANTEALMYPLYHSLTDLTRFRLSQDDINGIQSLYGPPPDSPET

For `CC(C)C[C@H](CC1CSC(c2ccccc2)(c2ccccc2)O1)C(=O)N1C(=O)OC[C@@H]1Cc1ccccc1` (stereo partly shown) [FIG. 11 (3)], the “potency against stromelysin relative to the corresponding compound (FIG. 11)” value was “more than twice as potent”.
